Results reported in US20240381871A1, “5-HALOALKOXY-PYRIMIDINE COMPOUNDS AS HERBICIDES” (SYNGENTA CROP PROTECTION AG, priority 2020, published 2024).

Key:
Format in all cases: in vivo
[1] = test system: Ipomea hederacea (IPOHE); assay: Comparative post-emergence test, weed control; conditions: Ipomoea hederacea, 336 h, after 14 days, read-out: IPOHE damage (100=total damage to plant; 0=no damage)
Description: (§1) Seeds of test species were sown in standard soil in pots. After cultivation for 10 days (post-emergence) under controlled conditions in a glasshouse (at 24/16° C., day/night; 14 hours light; 65% humidity), the plants were sprayed with an aqueous spray solution derived from the formulation of the technical active ingredient in 0.6 ml acetone and 45 ml formulation solution containing 10.6% Emulsogen EL (Registry number 61791-12-6), 42.2% N-methyl pyrrolidone, 42.2% dipropylene glycol monomethyl ether (CAS RN 34590-94-8) and 0.2% X-77 (CAS RN 11097-66-8). The test plants were then grown in a glasshouse under controlled conditions in a glasshouse (at 24/16° C., day/night; 14 hours light; 65% humidity) and watered twice daily. After 14 days, the test was evaluated (100=total damage to plant; 0=no damage to plant). • Weeds: Ipomea hederacea (IPOHE) • Crops: Zea mays (ZEAMX)

[2] = test system: Zea mays (ZEAMX); assay: Comparative post-emergence test, crop damage; conditions: 336 h, after 14 days, read-out: ZEAMX damage (100=total damage to plant; 0=no damage)
Description: as §1

[3] = test system: Ipomoea hederacea (IPOHE); assay: Pre-emergence herbicidal glasshouse test; conditions: rate 250, evaluated after 13 days, the values are:
Description: (§2) Seeds of a variety of test species are sown in standard soil in pots, Amaranthus retoflexus (AMARE), Abutilon theophrasti (ABUTH), Setaria faberi (SETFA), Echinochloa crus-galli (ECHCG) and Ipomoea hederacea (IPOHE). After cultivation for one day (pre-emergence) or after 8 days cultivation (post-emergence) under controlled conditions in a glasshouse (at 24/16° C., day/night; 14 hours light; 65% humidity), the plants are sprayed with an aqueous spray solution derived from the formulation of the technical active ingredient in acetone/water (50:50) solution containing 0.5% Tween 20 (polyoxyethelyene sorbitan monolaurate, CAS RN 9005-64-5). Compounds are applied at 1000 g/ha unless otherwise stated. The test plants are then grown in a glasshouse under controlled conditions in a glasshouse (at 24/16° C., day/night; 14 hours light; 65% humidity) and watered twice daily. After 13 days for pre and post-emergence, the test is evaluated for the percentage damage caused to the plant.

[4] = test system: Amaranthus retoflexus (AMARE); assay: Pre-emergence herbicidal glasshouse test; conditions: rate 250, evaluated after 13 days, the values are:
Description: as §2

[5] = test system: Abutilon theophrasti (ABUTH); assay: Pre-emergence herbicidal glasshouse test; conditions: rate 250, evaluated after 13 days, the values are:
Description: as §2

[6] = test system: Echinochloa crus-galli (ECHCG); assay: Pre-emergence herbicidal glasshouse test; conditions: rate 250, evaluated after 13 days, the values are: phytotoxicity score (1-5)
Description: as §2

[7] = test system: Setaria faberi (SETFA); assay: Pre-emergence herbicidal glasshouse test; conditions: rate 250, evaluated after 13 days, the values are: phytotoxicity score (1-5)
Description: as §2

[8] = test system: Ipomoea hederacea (IPOHE); assay: Post-emergence herbicidal glasshouse test; conditions: rate 250, evaluated after 13 days, the values are: phytotoxicity score (1-5 scale)
Description: as §2

[9] = test system: Amaranthus retoflexus (AMARE); assay: Post-emergence herbicidal glasshouse test; conditions: rate 250, evaluated after 13 days, the values are: phytotoxicity score (1-5 scale)
Description: as §2

[10] = test system: Abutilon theophrasti (ABUTH); assay: Post-emergence herbicidal glasshouse test; conditions: rate 250, evaluated after 13 days, the values are:
Description: as §2

[11] = test system: Echinochloa crus-galli (ECHCG); assay: Post-emergence herbicidal glasshouse test; conditions: rate 250, evaluated after 13 days, the values are: phytotoxicity score (1-5 scale)
Description: as §2

[12] = test system: Setaria faberi (SETFA); assay: Post-emergence herbicidal glasshouse test; conditions: rate 250, evaluated after 13 days, the values are:
Description: as §2

Work on COc1cnc(Oc2cccc(C#N)c2-c2cc(C(F)F)no2)nc1 yielded a pest or weed control at 2 g/ha [1] of 10%, a pest or weed control at 8 g/ha [1] of 30% and a pest or weed control at 60 g/ha [1] of 40%. The pest or weed control at 125 g/ha [1] was 50%, the pest or weed control at 250 g/ha [1] was 50% and the pest or weed control at 500 g/ha [1] was 60%. It also gave a plant injury at 2 g/ha [2] of 0%, a plant injury at 8 g/ha [2] of 0% and a plant injury at 60 g/ha [2] of 0%. The plant injury at 125 g/ha [2] was 10%, the plant injury at 250 g/ha [2] was 10% and the plant injury at 500 g/ha [2] was 40%.
In the case of FC(F)Oc1cnc(Oc2cccc(Br)c2CCCC(F)(F)F)nc1 [Compound 1.024], the Pre-emergence activity IPOHE (% phytotoxicity) [3] is reported as 1, the Pre-emergence activity AMARE (% phytotoxicity) [4] is reported as 2 and the Pre-emergence activity ABUTH (% phytotoxicity) [5] is reported as 1. For the same molecule, the Pre-emergence activity ECHCG (% phytotoxicity) [6] was 1, the Pre-emergence activity SETFA (% phytotoxicity) [7] was 1 and the Post-emergence activity IPOHE (% phytotoxicity) [8] was 1. For the same molecule, the Post-emergence activity AMARE (% phytotoxicity) [9] was 2, the Post-emergence activity ABUTH (% phytotoxicity) [10] was 1 and the Post-emergence activity ECHCG (% phytotoxicity) [11] was 1. It also gave a Post-emergence activity SETFA (% phytotoxicity) [12] of 1.
For COc1cnc(Oc2cccc(Cl)c2-c2cc(C(F)F)no2)nc1, the pest or weed control at 2 g/ha [1] was 20%, the pest or weed control at 8 g/ha [1] was 30% and the pest or weed control at 60 g/ha [1] was 20%. The pest or weed control at 125 g/ha [1] was 50%, the pest or weed control at 250 g/ha [1] was 60% and the plant injury at 2 g/ha [2] was 0%. The plant injury at 8 g/ha [2] was 0%, the plant injury at 60 g/ha [2] was 10% and the plant injury at 125 g/ha [2] was 20%. It also gave a plant injury at 250 g/ha [2] of 30%.
FC(F)Oc1cnc(Oc2cccc(Cl)c2CCCC(F)(F)F)nc1 [Compound 1.023, 2-[3-chloro-2-(4,4,4-trifluorobutyl)phenoxy]-5-(difluoromethoxy)pyrimidine] showed a Pre-emergence activity IPOHE (% phytotoxicity) [3] of 1, a Pre-emergence activity AMARE (% phytotoxicity) [4] of 1 and a Pre-emergence activity ABUTH (% phytotoxicity) [5] of 1. For the same molecule, the Pre-emergence activity ECHCG (% phytotoxicity) [6] was 1, the Pre-emergence activity SETFA (% phytotoxicity) [7] was 1 and the Post-emergence activity IPOHE (% phytotoxicity) [8] was 1. For the same molecule, the Post-emergence activity AMARE (% phytotoxicity) [9] was 1, the Post-emergence activity ABUTH (% phytotoxicity) [10] was 1 and the Post-emergence activity ECHCG (% phytotoxicity) [11] was 1. The Post-emergence activity SETFA (% phytotoxicity) [12] was 1.
Work on Fc1cccc(Oc2ncc(OC(F)(F)F)cn2)c1-c1cc(C(F)F)no1 [Compound 1.002, 3-(difluoromethyl)-5-[2-fluoro-6-[5-(trifluoromethoxy)pyrimidin-2-yl]oxy-phenyl]isoxazole] yielded a Pre-emergence activity IPOHE (% phytotoxicity) [3] of 4, a Pre-emergence activity AMARE (% phytotoxicity) [4] of 5 and a Pre-emergence activity ABUTH (% phytotoxicity) [5] of 5. It also gave a Pre-emergence activity ECHCG (% phytotoxicity) [6] of 4, a Pre-emergence activity SETFA (% phytotoxicity) [7] of 5 and a Post-emergence activity IPOHE (% phytotoxicity) [8] of 3. For the same molecule, the Post-emergence activity AMARE (% phytotoxicity) [9] was 4, the Post-emergence activity ABUTH (% phytotoxicity) [10] was 4 and the Post-emergence activity ECHCG (% phytotoxicity) [11] was 4. For the same molecule, the Post-emergence activity SETFA (% phytotoxicity) [12] was 4.
COc1cnc(Oc2ccccc2-c2cc(C(F)F)no2)nc1 [Compound 213] was tested, and the pest or weed control at 2 g/ha [1] was 0%, the pest or weed control at 8 g/ha [1] was 10% and the pest or weed control at 60 g/ha [1] was 20%. The pest or weed control at 125 g/ha [1] was 30%, the pest or weed control at 250 g/ha [1] was 40% and the pest or weed control at 500 g/ha [1] was 50%. The plant injury at 2 g/ha [2] was 0%, the plant injury at 8 g/ha [2] was 0% and the plant injury at 60 g/ha [2] was 0%. It also gave a plant injury at 125 g/ha [2] of 0%, a plant injury at 250 g/ha [2] of 0% and a plant injury at 500 g/ha [2] of 20%.
COc1cnc(Oc2cccc(Br)c2-c2cc(C(F)F)no2)nc1 showed a pest or weed control at 2 g/ha [1] of 10%, a pest or weed control at 8 g/ha [1] of 30% and a pest or weed control at 60 g/ha [1] of 50%. It also gave a pest or weed control at 125 g/ha [1] of 50%, a pest or weed control at 250 g/ha [1] of 60% and a plant injury at 2 g/ha [2] of 0%. For the same molecule, the plant injury at 8 g/ha [2] was 0%, the plant injury at 60 g/ha [2] was 0% and the plant injury at 125 g/ha [2] was 10%. It also gave a plant injury at 250 g/ha [2] of 30%.
For N#Cc1cccc(Oc2ncc(OC(F)F)cn2)c1CCCC(F)(F)F [Compound 1.025], the Pre-emergence activity IPOHE (% phytotoxicity) [3] was 1, the Pre-emergence activity AMARE (% phytotoxicity) [4] was 1 and the Pre-emergence activity ABUTH (% phytotoxicity) [5] was 1. The Pre-emergence activity ECHCG (% phytotoxicity) [6] was 1, the Pre-emergence activity SETFA (% phytotoxicity) [7] was 1 and the Post-emergence activity IPOHE (% phytotoxicity) [8] was 1. It also gave a Post-emergence activity AMARE (% phytotoxicity) [9] of 2, a Post-emergence activity ABUTH (% phytotoxicity) [10] of 1 and a Post-emergence activity ECHCG (% phytotoxicity) [11] of 1. For the same molecule, the Post-emergence activity SETFA (% phytotoxicity) [12] was 1.
Molecule O=C(CCC(F)(F)F)c1c(Br)cccc1Oc1ncc(OC(F)F)cn1 [Compound 1.028] has a Pre-emergence activity IPOHE (% phytotoxicity) [3] of 1, a Pre-emergence activity AMARE (% phytotoxicity) [4] of 5 and a Pre-emergence activity ABUTH (% phytotoxicity) [5] of 2. The Pre-emergence activity ECHCG (% phytotoxicity) [6] was 1, the Pre-emergence activity SETFA (% phytotoxicity) [7] was 5 and the Post-emergence activity IPOHE (% phytotoxicity) [8] was 2. For the same molecule, the Post-emergence activity AMARE (% phytotoxicity) [9] was 5, the Post-emergence activity ABUTH (% phytotoxicity) [10] was 2 and the Post-emergence activity ECHCG (% phytotoxicity) [11] was 1. The Post-emergence activity SETFA (% phytotoxicity) [12] was 1.
Fc1cccc(Oc2ncc(OC(F)F)cn2)c1-c1cc(C(F)F)no1 [Compound 1.001, 5-[2-[5-(difluoromethoxy)pyrimidin-2-yl]oxy-6-fluoro-phenyl]-3-(difluoromethyl)isoxazole] showed a pest or weed control at 2 g/ha [1] of 30%, a pest or weed control at 8 g/ha [1] of 20% and a pest or weed control at 60 g/ha [1] of 70%. It also gave a pest or weed control at 125 g/ha [1] of 80%, a pest or weed control at 250 g/ha [1] of 90% and a pest or weed control at 500 g/ha [1] of 100%. It also gave a Pre-emergence activity IPOHE (% phytotoxicity) [3] of 5, a Pre-emergence activity AMARE (% phytotoxicity) [4] of 5 and a Pre-emergence activity ABUTH (% phytotoxicity) [5] of 5. It also gave a Pre-emergence activity SETFA (% phytotoxicity) [7] of 5, a Post-emergence activity IPOHE (% phytotoxicity) [8] of 3 and a Post-emergence activity AMARE (% phytotoxicity) [9] of 4. The Post-emergence activity ABUTH (% phytotoxicity) [10] was 3, the Post-emergence activity SETFA (% phytotoxicity) [12] was 4 and the plant injury at 8 g/ha [2] was 0%. For the same molecule, the plant injury at 60 g/ha [2] was 20%, the plant injury at 125 g/ha [2] was 10% and the plant injury at 250 g/ha [2] was 20%. It also gave a plant injury at 500 g/ha [2] of 40%.
In the case of O=C(CCC(F)(F)F)c1c(Cl)cccc1Oc1ncc(OC(F)F)cn1 [Compound 1.027, 1-[2-chloro-6-[5-(difluoromethoxy)pyrimidin-2-yl]oxy-phenyl]-4,4,4-trifluoro-butan-1-one], the Pre-emergence activity IPOHE (% phytotoxicity) [3] is reported as 1, the Pre-emergence activity AMARE (% phytotoxicity) [4] is reported as 4 and the Pre-emergence activity ABUTH (% phytotoxicity) [5] is reported as 3. It also gave a Pre-emergence activity ECHCG (% phytotoxicity) [6] of 2, a Pre-emergence activity SETFA (% phytotoxicity) [7] of 4 and a Post-emergence activity IPOHE (% phytotoxicity) [8] of 3. It also gave a Post-emergence activity AMARE (% phytotoxicity) [9] of 4, a Post-emergence activity ABUTH (% phytotoxicity) [10] of 3 and a Post-emergence activity ECHCG (% phytotoxicity) [11] of 1. For the same molecule, the Post-emergence activity SETFA (% phytotoxicity) [12] was 1.
In the case of COc1cnc(Oc2cccc(F)c2-c2cc(C(F)F)no2)nc1, the pest or weed control at 2 g/ha [1] is reported as 10%, the pest or weed control at 8 g/ha [1] is reported as 10% and the pest or weed control at 60 g/ha [1] is reported as 20%. For the same molecule, the pest or weed control at 125 g/ha [1] was 50%, the pest or weed control at 250 g/ha [1] was 60% and the pest or weed control at 500 g/ha [1] was 70%. It also gave a plant injury at 2 g/ha [2] of 0%, a plant injury at 8 g/ha [2] of 0% and a plant injury at 60 g/ha [2] of 10%. It also gave a plant injury at 125 g/ha [2] of 10%, a plant injury at 250 g/ha [2] of 10% and a plant injury at 500 g/ha [2] of 40%.
